Measurements published in patent US6066484A, “Purine nucleosidase” (Suntory Limited, priority 1996, dated 2000).

Legend:
[1] = tested on: purine nucleosidase; test: Specific activity, Km and Vmax of purine nucleosidase; type: biochemical, Ochrobactrum anthropi; details: pH 4.5; for Km / Vmax: 30° C.; for Specific activity: 50° C.
Protocol: (§1) The reaction solution (200 μl) contained 0.5 mM of adenosine or inosine or 0.25 mM of guanosine as the substrate, 50 mM of acetate buffer at pH 4.5 and a sufficient amount of enzyme. The reaction was initiated by addition of the enzyme, and the reaction was conducted at 50° C. for 5 minutes. The reaction was terminated by addition of 20 μl of 15% perchloric acid, and after centrifugation (35,000 rpm, 10 min) the supernatant was analyzed qualitatively by thin-layer chromatography (TLC) and quantitatively by high-performance liquid chromatography. The analysis methods were as follows.
(2) High-performance liquid chromatography
Eluent: 0.1 M sodium chlorate tetrahydrate, 0.1% (v/v) phosphoric acid
(§2) The specific activity was measured under conditions of 50° C., pH 4.5. The Km and Vmax were measured under conditions of 30° C., pH 4.5. The relative activity was expressed according to the following measurement method.

[2] = tested on: purine nucleosidase; test: Substrate specificity of purine nucleosidase by thin-layer chromatography; type: biochemical, Ochrobactrum anthropi; details: for decomposition of purine nucleosides (in words): pH 5.5 and 60° C.; for Relative activity: thin-layer chromatography
Protocol: as §1
(1) Thin-layer chromatography
Plate: Kieselgel 60F254 (Merk)
Developing solution: n-butanol/isopropanol/H2 O/NH4 OH=1:7:2:0.2 (v/v/v/v) (for adenosine and guanosine substrates), n-butanol/acetic acid/H2 O=5:1:1 (v/v/v) (for inosine substrate)
The substrate specificity of the purine nucleosidase was determined by thin-layer chromatography (TLC).
as §2

[3] = tested on: Aspergillus niger nucleosidase; details: cited from earlier work
[4] = tested on: Active fraction 2 (purine nucleosidase activity); test: Purine nucleosidase activity of active fraction 2 (1st DEAE-Sephacel); type: biochemical, Ochrobactrum anthropi
[5] = tested on: Active fraction 1 (purine nucleosidase activity); test: Purine nucleosidase activity of active fraction 1 (1st DEAE-Sephacel); type: biochemical, Ochrobactrum anthropi
Protocol: After suspending 20 g of the wet cells in 40 ml of 10 mM Tris-HCl buffer solution (pH 7.4) (hereunder referred to as "buffer"), they were disrupted in a Dynamill at 4° C. for 10 minutes. After filtering the disrupted cell suspension it was centrifuged (10,000 rpm, 60 min) and the supernatant was used as a cell-free extract. The cell-free extract (250 ml) was dialyzed for 12 hours against 5 L of buffer and then applied to a DEAE-Sephacel column (3×30 cm, 200 ml) which had been equilibrized with the buffer. The adsorbed protein was eluted with an NaCl concentration gradient from 0 to 1.0 M and the active fractions were recovered.
The purine nucleosidase activity at this time was split into two peaks (FIG. 1). Fraction nos. 46 to 69 were collected as the first active fraction and fraction nos. 85 to 101 were collected as the second active fraction.
as §1

[6] = tested on: Bacillus cereus nucleosidase; test: Bacillus cereus nucleosidase, cell extracts; type: biochemical; details: studies by the present inventors
Description: Based on studies by the present inventors using cell extracts, the activity against guanosine is low. Crithidia fasciculata nucleosidase has a high optimum pH of 8.5. Wort also contains various low molecular substances, sugars and proteins, and it has not yet been investigated whether known nucleosidases can actually act on them. Therefore, we screened natural sources for microorganism-derived purine nucleosidases which can utilize adenosine, inosine and guanosine as substrates under conditions of pH 5.0 to 5.5, 50 to 80° C. As a result, high purine nucleosidase activity was found in crushed cell solutions of Ochrobactrum anthropi.

Compound | Km [1] | Vmax [1] | decomposition of purine nucleosides (in words) [2] | Relative activity [2] | decomposition of substrate (in words) [3] | Specific activity [1] | Specific activity, Active fraction 2 ([4]; 30° C.) | Specific activity, Active fraction 2 ([4]; 50° C.) | Specific activity, Active fraction 1 ([5]; 30° C.) | Specific activity, Active fraction 1 ([5]; 50° C.) | activity against substrate (in words) [6]
O=c1[nH]c(=O)c2ncn([C@@H]3O[C@H](CO)[C@@H](O)[C@H]3O)c2[nH]1 [xanthosine] | 63.8 µM | 68 µmol/min/mg | capable of decomposing | ++++ (>50%) | cannot decompose | – | – | – | – | – | –
Nc1nc2c(ncn2[C@@H]2O[C@H](CO)[C@@H](O)[C@H]2O)c(=O)[nH]1 [guanosine] | 53.9 µM | 11.5 µmol/min/mg | capable of decomposing | ++++ (>50%) | – | 63.3 µmol/min/mg | 0.33 µmol/min/mg | 0.26 µmol/min/mg | 0.44 µmol/min/mg | 1.5 µmol/min/mg | low
OC[C@H]1O[C@@H](n2cnc3c(O)ncnc32)[C@H](O)[C@@H]1O [inosine] | 29.6 µM | 18.8 µmol/min/mg | capable of decomposing | ++++ (>50%) | – | 177 µmol/min/mg | 0.63 µmol/min/mg | 0.44 µmol/min/mg | 1.02 µmol/min/mg | 4.3 µmol/min/mg | –
